From US20050209278A1, “Piperidinyl- and piperazinyl-sulfonylmethyl hydroxamic acids and their use as protease inhibitors” (priority 2002, published 2005)
Where two headings read alike, the source gives them in different places.

Assays:
Format in all cases: biochemical
[1] = target: T1, MMP-13 (Homo sapiens, UniProt P45452); test: MMP-13 inhibition (in vitro Ki)
T1 construct: made in house; host or cells: baculovirus / insect cells

[2] = target: T2, MMP-2 (Homo sapiens, UniProt P08253); test: MMP-2 inhibition (in vitro Ki)
T2 construct: made in house; host or cells: MMP-2-transfected p2AHT2 cells
T2 sequence (P08253 110-660): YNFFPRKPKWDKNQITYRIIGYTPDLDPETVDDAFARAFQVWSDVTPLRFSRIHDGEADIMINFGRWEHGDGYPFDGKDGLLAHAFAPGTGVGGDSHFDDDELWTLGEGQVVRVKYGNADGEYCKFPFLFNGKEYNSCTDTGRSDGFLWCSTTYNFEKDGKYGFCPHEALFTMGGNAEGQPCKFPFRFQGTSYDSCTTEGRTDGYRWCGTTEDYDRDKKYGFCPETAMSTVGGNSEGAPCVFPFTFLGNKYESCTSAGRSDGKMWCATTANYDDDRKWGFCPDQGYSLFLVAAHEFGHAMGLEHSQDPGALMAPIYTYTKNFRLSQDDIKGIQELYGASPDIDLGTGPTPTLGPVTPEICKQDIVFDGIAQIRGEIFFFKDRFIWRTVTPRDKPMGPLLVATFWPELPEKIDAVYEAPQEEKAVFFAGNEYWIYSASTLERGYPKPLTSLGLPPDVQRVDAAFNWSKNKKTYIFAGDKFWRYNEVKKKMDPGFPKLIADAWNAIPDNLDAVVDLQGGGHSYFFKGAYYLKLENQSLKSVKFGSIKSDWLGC

[3] = target: T3, MMP-1 (Homo sapiens, UniProt P03956); test: MMP-1 inhibition (in vitro Ki)
T3 construct: made in house; host or cells: MMP-1-transfected HT-1080 cells (spent media)
T3 sequence (P03956 100-469): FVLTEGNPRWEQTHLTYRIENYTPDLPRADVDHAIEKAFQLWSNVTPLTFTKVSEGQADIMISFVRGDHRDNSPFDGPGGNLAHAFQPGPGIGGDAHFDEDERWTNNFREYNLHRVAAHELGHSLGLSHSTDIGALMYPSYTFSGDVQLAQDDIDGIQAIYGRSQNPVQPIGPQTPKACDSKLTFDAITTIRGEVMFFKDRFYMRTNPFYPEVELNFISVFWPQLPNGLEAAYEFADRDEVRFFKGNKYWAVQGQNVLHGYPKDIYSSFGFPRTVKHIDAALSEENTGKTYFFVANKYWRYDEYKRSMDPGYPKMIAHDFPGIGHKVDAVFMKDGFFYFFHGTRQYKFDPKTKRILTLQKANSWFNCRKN

[4] = target: T4, MMP-9 (Homo sapiens, UniProt P14780); test: MMP-9 inhibition (in vitro Ki)
T4 construct: made in house; host or cells: MMP-9-transfected HT1080 cells (spent media)

[5] = target: T5, MMP-14 (Homo sapiens, UniProt P50281); test: MMP-14 inhibition (in vitro Ki)
T5 construct: The catalytic domain enzyme was expressed in E. coli inclusion bodies, solubilized in urea; made in house

[6] = Table 9, read-out: MMP-13 Ki (IC-50)
[7] = Table 9, read-out: MMP-2 Ki (IC-50)
[8] = Table 9, read-out: MMP-1 Ki (IC-50)
[9] = Table 9, read-out: MMP-9 Ki (IC-50)
[10] = Table 9, read-out: MMP-14 Ki (IC-50)

T4 sequence (P14780 107-707 limits assumed): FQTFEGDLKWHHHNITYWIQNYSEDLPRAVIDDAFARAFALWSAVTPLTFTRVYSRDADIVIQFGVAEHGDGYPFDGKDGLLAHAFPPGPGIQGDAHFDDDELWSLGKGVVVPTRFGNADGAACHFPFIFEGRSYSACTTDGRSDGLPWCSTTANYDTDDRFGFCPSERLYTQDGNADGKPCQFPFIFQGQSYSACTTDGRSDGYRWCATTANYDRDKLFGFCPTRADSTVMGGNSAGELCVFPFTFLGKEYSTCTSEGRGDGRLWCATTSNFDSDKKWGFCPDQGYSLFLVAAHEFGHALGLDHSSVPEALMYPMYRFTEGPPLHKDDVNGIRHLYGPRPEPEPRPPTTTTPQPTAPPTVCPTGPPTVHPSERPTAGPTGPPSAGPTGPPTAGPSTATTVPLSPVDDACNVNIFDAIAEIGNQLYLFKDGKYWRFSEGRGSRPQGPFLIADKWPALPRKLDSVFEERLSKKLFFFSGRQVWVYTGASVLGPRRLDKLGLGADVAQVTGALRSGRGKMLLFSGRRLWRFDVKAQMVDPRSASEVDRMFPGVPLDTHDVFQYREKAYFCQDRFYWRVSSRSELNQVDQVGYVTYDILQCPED

Compound	Ki [1, 6] [nM]	Ki [2, 7] [nM]	Ki [3, 8] [nM]	Ki [4, 9] [nM]	Ki [5, 10] [nM]	also measured
O=C(NO)C1(S(=O)(=O)N2CCC(c3ccc(C#CCCO)cn3)CC2)CCOCC1 [Example A133]	1.12	0.77	1900	1.07	3870	
CN(C(=O)/C=C/C=C/C1CCN(S(=O)(=O)C2(C(=O)NO)CCOCC2)CC1)C1CCCCC1 [Example A79]	5.94	2450	> 10000	> 10000	> 10000	
O=C(NO)C1(S(=O)(=O)N2CCC(CCc3ccccc3)CC2)CCOCC1 [Example A185]	0.95	1.1	1720	1.69	42.7	
CC(C)CC#Cc1ccc(C2CCN(S(=O)(=O)C3(C(=O)NO)CCOCC3)CC2)nc1 [Example A138]	0.14	0.68	3440	0.24	763	
O=C(NO)C1(S(=O)(=O)N2CCC(CCCCCCC(F)(F)C(F)(F)F)CC2)CCOCC1 [Example A51, 4-[4-(7,7,8,8,8-pentafluoro-octyl)-piperidine-1-sulfonyl]-tetrahydro-pyran-4-carboxylic Acid Hydroxyamide]						Ki ([1]; Table 8, read-out: MMP-13 Ki): 0.27 nM; Ki ([2]; Table 8, read-out: MMP-2 Ki): 0.27 nM; Ki ([3]; Table 8, read-out: MMP-1 Ki): 5110 nM; Ki ([4]; Table 8, read-out: MMP-9 Ki): 1.01 nM; Ki ([5]; Table 8, read-out: MMP-14 Ki): 1260 nM
O=C(CCCCN1CCN(S(=O)(=O)C2(C(=O)NO)CCOCC2)CC1)N1CCCCC1 [Example A119]	154	> 10000	> 10000	> 10000	> 10000	
Cc1ccc(N(C)C(=O)CCCC2CCN(S(=O)(=O)C3(C(=O)NO)CCOCC3)CC2)cc1 [Example A142]	66.4	358	> 10000	184	> 10000	
O=C(NO)C1(S(=O)(=O)N2CCC(c3cnc(OCC4CC4)cn3)CC2)CCOCC1 [Example A151]	1.53	1.34	> 10000	0.72	3100	
COCc1ccc(C2CCN(S(=O)(=O)C3(C(=O)NO)CCOCC3)CC2)nc1 [Example A177]	6.81	3.83	> 10000	0.88	3360	
Cn1cc(-c2ccc(C3CCN(S(=O)(=O)C4(C(=O)NO)CCOCC4)CC3)nc2)cn1 [Example A201]	2.14	4.25	5850	16.8	3380	
CCn1nnc(-c2ccc(N3CCN(S(=O)(=O)C4(C(=O)NO)CCOCC4)CC3)cc2)n1 [Example A186]	0.21	0.23	924	0.55	421	
O=C(/C=C/C=C/C1CCN(S(=O)(=O)C2(C(=O)NO)CCOCC2)CC1)N1CCc2ccccc2C1 [Example A75]	0.41	228	6150	501	> 10000	
O=C(NO)C1(S(=O)(=O)N2CCC(c3ccc(CCC(F)(F)C(F)(F)F)cn3)CC2)CCN(c2ccccc2)CC1 [Example A167]	1.54	3.04	> 10000	2.21	> 10000	
O=C(CCCCC1CCN(S(=O)(=O)C2(C(=O)NO)CCOCC2)CC1)N1CCc2ccccc21 [Example B1, (4-({4-[5-(2,3-dihydro-1H-indol-1-yl)-5-oxopentyl]piperidin-1-yl}sulfonyl)-N-hydroxytetrahydro-2H-pyran-4-carboxamide)]						Ki ([1]; Table 10, read-out: MMP-13 Ki): 0.229 nM; Ki ([2]; Table 10, read-out: MMP-2 Ki): 30.7 nM; Ki ([3]; Table 10, read-out: MMP-1 Ki): 482 nM; Ki ([4]; Table 10, read-out: MMP-9 Ki): 380 nM; Ki ([5]; Table 10, read-out: MMP-14 Ki): > 10000 nM
O=C(NO)C1(S(=O)(=O)N2CCC(c3ccc(COCC(F)(F)F)cn3)CC2)CCOCC1 [Example A173]	1.91	7.59	> 10000	1.84	> 10000	
O=C(NO)C1(S(=O)(=O)N2CCC(F)(c3ccc(CCCC(F)(F)F)cn3)CC2)CCOCC1 [Example A157]	2.54	36.5	> 10000	2.94	> 10000	
